Experimental data taken from patent US7981903B2, “2-[2-{phenylamino}-1H-pyrrolo[2,3-D]pyrimidin-4-yl)amino] benzamide derivatives as IGF-1R inhibitors for the treatment of cancer” (GlaxoSmithKline LLC, priority 2007, dated 2011).

Tests used:
[1] = biological target: T1, human IGF1R (hIGF1R) (Homo sapiens, UniProt P08069); test: TR-FRET kinase assay of purified hIGF1R; type: biochemical; settings: activated hIGF1R 0.5 nM, 10 μM ATP, values given as pIC50 category, read-out: IGF-1R pIC50 (converted)
T1 construct: containing amino acid residues 957-1367 of human IGF1R; made in house; host or cells: Sf9 cells (baculovirus)
T1 sequence (P08069 957-1367): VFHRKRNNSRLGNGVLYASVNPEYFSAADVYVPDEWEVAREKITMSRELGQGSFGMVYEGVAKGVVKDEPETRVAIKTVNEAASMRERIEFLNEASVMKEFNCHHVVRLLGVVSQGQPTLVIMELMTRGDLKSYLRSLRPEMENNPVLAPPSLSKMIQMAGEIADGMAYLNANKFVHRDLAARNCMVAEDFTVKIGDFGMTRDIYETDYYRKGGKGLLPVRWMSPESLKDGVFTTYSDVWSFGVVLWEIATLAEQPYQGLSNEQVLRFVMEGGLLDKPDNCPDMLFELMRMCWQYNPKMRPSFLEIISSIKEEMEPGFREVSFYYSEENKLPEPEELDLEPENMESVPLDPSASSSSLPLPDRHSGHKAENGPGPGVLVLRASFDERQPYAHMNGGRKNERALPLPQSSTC

[2] = biological target: T2, human IR (hIR) (Homo sapiens, UniProt P06213); test: TR-FRET kinase assay of purified hIR; type: biochemical; settings: activated hIR 0.5 nM, 10 μM ATP, values given as pIC50 category
T2 construct: containing amino acid residues 979-1382 of human IR; made in house; host or cells: Sf9 cells (baculovirus), same process as hIGF1R
T2 sequence (P06213 979-1382): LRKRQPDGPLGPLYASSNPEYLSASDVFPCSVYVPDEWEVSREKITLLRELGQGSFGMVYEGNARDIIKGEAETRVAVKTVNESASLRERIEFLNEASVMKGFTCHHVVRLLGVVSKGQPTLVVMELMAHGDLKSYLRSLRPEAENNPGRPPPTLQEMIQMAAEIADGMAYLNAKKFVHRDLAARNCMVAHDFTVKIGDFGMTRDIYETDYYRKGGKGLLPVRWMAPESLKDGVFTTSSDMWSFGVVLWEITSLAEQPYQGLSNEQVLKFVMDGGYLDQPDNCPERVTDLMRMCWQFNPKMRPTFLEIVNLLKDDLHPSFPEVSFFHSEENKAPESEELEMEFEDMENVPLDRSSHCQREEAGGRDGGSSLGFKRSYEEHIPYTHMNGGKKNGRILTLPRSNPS

[3] = biological target: ALK (Homo sapiens, UniProt Q9UM73); test: ALK enzyme assay (HTRF); type: biochemical; settings: 0.25 nM ALK, 15.0 μM ATP, values given as pIC50 category
Sequence of ALK (Q9UM73 19-1620): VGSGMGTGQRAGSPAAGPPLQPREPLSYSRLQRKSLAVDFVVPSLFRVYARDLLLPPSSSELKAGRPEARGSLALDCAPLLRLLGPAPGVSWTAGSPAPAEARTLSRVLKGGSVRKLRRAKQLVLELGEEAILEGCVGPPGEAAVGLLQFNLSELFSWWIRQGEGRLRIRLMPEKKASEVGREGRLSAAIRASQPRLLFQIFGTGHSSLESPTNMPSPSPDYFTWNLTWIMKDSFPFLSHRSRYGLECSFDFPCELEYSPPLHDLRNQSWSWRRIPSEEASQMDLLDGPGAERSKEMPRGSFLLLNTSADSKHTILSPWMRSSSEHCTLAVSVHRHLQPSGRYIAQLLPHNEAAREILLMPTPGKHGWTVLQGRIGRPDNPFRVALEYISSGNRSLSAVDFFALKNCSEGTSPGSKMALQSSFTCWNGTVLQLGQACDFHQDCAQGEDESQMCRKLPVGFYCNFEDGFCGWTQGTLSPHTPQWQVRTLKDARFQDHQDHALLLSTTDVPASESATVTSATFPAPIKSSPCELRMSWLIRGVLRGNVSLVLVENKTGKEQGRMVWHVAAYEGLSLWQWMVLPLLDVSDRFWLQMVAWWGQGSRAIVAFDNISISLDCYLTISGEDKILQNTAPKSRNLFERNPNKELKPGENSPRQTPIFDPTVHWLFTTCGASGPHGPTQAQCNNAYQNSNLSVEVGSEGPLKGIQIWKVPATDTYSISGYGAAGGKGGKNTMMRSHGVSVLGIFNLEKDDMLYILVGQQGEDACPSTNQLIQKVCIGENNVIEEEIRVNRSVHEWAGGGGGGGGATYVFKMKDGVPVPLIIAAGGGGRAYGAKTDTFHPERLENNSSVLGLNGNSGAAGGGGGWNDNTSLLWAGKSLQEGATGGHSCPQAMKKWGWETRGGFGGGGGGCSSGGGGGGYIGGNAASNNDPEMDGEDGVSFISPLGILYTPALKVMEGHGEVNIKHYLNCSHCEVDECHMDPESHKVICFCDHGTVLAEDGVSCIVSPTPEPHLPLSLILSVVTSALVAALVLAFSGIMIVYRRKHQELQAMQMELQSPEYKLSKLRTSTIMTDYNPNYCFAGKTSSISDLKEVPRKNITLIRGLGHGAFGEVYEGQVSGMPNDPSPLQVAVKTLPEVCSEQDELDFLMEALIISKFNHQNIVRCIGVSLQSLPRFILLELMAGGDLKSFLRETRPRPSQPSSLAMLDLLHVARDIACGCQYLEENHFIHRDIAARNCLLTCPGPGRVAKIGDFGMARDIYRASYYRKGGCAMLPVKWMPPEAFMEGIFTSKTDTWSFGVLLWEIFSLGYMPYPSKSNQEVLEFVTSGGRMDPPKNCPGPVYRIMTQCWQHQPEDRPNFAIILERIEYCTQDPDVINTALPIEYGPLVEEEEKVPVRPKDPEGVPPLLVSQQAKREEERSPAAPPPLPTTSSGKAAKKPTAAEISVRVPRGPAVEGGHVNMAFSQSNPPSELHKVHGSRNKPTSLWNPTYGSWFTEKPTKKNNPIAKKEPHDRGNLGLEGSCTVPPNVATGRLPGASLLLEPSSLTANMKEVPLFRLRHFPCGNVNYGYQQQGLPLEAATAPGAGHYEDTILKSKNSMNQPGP
In short: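 Isolated ALK phosphorylates a biotinylated tyrosine peptide, 120 min at 20° C; anti-phosphotyrosine Eu-cryptate/streptavidin-XL665 HTRF read after 60 min with EDTA-containing detection mix.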

[4] = biological target: T3, NIH-3T3 cells overexpressing human IGF-1R (Homo sapiens, UniProt P08069); test: IGF-1R cellular autophosphorylation (DELFIA); type: cell-based
T3 construct: expressed in transfected cells; host or cells: NIH-3T3 (mouse fibroblasts)
T3 sequence (P08069 31-1367): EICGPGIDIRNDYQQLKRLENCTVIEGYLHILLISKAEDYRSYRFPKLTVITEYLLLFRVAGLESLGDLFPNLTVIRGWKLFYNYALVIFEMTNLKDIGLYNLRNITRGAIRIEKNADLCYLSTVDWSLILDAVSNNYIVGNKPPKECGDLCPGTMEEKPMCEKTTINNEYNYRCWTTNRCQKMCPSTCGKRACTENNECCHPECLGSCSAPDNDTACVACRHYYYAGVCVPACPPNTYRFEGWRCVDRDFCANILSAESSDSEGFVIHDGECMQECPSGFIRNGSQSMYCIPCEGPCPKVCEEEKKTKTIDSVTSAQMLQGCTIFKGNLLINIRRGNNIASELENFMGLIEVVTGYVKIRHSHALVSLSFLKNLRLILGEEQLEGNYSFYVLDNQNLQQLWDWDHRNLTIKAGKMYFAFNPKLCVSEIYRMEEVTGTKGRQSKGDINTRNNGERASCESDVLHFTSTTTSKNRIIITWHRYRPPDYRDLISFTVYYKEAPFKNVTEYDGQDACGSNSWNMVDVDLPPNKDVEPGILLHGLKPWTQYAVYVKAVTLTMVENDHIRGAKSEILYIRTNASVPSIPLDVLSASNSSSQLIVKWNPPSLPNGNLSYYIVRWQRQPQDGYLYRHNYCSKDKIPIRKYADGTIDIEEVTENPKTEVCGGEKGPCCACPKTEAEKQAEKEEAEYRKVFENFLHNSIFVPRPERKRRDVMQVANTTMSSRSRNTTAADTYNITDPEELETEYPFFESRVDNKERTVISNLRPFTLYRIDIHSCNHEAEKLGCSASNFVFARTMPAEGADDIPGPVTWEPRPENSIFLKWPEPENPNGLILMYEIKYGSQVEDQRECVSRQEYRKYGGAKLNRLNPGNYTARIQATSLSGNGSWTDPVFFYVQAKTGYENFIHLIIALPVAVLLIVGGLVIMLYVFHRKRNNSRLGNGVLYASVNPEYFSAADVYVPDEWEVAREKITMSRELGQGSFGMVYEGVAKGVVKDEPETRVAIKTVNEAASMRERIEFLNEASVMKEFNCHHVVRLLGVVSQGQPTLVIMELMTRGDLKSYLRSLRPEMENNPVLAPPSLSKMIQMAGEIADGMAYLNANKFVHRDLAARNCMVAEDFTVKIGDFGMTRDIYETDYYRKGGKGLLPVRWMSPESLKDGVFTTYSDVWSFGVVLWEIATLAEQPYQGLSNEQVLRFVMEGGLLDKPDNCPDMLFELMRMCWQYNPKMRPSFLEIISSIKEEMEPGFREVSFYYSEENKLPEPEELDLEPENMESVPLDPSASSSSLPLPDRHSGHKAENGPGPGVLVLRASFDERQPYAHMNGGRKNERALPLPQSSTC
In short: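 Receptor autophosphorylation measured by DELFIA, capturing IGF-1R or IRβ and detecting with europium anti-pTyr, reported as percent of IGF-1- or insulin-stimulated signal. Compounds (30 uM to 1.5 nM) added 2 h before ligand, then 15 min stimulation (IGF-1 30 ng/ml or insulin 3 ug/ml).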

[5] = biological target: T4, NIH-3T3 cells overexpressing human IR (Homo sapiens, UniProt P06213); test: IR cellular autophosphorylation (DELFIA); type: cell-based; settings: 2 h compound, insulin 3 ug/ml for 15 minutes, IC50 category
T4 construct: expressed in transfected cells; host or cells: NIH-3T3 (mouse fibroblasts)
T4 sequence (P06213 28-1382): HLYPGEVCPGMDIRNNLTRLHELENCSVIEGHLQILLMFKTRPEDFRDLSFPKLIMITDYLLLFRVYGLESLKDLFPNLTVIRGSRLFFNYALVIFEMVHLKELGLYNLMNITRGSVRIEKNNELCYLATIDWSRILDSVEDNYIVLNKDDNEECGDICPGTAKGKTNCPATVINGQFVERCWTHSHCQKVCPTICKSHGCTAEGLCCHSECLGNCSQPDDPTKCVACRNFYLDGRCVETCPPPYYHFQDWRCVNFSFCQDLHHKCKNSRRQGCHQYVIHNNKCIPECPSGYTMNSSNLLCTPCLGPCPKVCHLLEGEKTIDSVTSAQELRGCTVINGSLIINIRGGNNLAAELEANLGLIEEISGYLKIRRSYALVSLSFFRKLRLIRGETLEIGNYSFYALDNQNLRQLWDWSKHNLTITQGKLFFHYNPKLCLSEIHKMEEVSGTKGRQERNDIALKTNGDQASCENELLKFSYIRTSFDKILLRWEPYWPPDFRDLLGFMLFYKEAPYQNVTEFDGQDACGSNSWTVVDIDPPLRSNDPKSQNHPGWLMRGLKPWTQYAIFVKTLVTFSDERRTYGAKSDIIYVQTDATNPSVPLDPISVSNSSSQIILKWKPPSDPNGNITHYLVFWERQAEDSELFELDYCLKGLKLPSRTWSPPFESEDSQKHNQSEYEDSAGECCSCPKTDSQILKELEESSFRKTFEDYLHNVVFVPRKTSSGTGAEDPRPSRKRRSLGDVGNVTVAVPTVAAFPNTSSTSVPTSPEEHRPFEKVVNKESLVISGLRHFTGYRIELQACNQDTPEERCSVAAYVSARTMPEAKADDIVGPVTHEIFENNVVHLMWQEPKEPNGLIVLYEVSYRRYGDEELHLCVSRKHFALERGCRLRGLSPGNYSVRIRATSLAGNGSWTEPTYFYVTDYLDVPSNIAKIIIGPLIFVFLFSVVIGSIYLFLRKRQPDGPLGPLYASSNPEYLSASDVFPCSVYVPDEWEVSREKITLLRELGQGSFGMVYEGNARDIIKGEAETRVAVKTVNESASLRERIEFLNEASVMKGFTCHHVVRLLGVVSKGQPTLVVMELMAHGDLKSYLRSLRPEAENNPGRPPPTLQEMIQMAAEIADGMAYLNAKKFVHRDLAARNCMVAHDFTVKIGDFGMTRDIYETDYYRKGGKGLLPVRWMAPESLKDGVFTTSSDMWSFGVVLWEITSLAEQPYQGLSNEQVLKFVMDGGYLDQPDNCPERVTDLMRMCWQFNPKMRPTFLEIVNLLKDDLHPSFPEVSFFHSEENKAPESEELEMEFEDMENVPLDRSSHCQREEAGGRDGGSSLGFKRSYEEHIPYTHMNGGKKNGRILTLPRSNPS
Protocol: NIH-3T3 cells overexpressing human IGF-1R or IR were plated in 96-well plates (10,000 cells/well) in culture media containing 10% fetal bovine serum and incubated at 37° C. in a 5% CO2 incubator. Twenty four hours post-plating, cells were treated with different concentrations of test compounds ranging from 30 uM to 1.5 nM. Two hours after compound addition, cells were stimulated with either human IGF-1 (30 ng/ml) or insulin (3 ug/ml) for 15 minutes. Cell lysates are analyzed for phosphorylated receptors using dissociation enhanced lanthanide fluor-immuno assay (DELFIA) with anti-IGF-1R (MAB391, R&D Systems, Minneapolis, Minn.) or anti-IRβ (sc-711, Santa Cruz Biotechnology, Santa Cruz, Calif.) capture antibody and europium-labeled anti-pTyr antibody (Eu-N1 PT66, Perkin Elmer, Waltham, Mass.) for detection. The fluorescence signal for cells treated with compounds was expressed as percent relative to 100% stimulation (IGF-1 or insulin stimulated signal).

SMILES | IC50 [1] | IC50 [2] | IC50 [3] | IC50 [4] | IC50 [5]
COc1cc(N2CCN(CC(C)C)CC2)ccc1Nc1nc(Nc2cc(F)ccc2C(N)=O)c2cc[nH]c2n1 [Example 80, 4-fluoro-2-{[2-({2-(methyloxy)-4-[4-(2-methylpropyl)-1-piperazinyl]phenyl}amino)-1H-pyrrolo[2,3-d]pyrimidin-4-yl]amino}benzamide] | 1.26 to 3.98 nM | 0.251 to 1 nM | 0.251 to 1 nM | < 100 nM | 100 to 500 nM
CCCN1CCC=C(c2ccc(Nc3nc(Nc4ccc(Cl)cc4C(N)=O)c4cc[nH]c4n3)c(OC)c2)C1 [Example 108, 5-chloro-2-[(2-{[2-(methyloxy)-4-(1-propyl-1,2,5,6-tetrahydro-3-pyridinyl)phenyl]amino}-1H-pyrrolo[2,3-d]pyrimidin-4-yl)amino]benzamide] | 0.251 to 1 nM | 0.251 to 1 nM | 0.251 to 1 nM | 100 to 500 nM | 100 to 500 nM
CCCN1CCC=C(c2ccc(Nc3nc(Nc4cc(Cl)ccc4C(N)=O)c4cc[nH]c4n3)c(OC)c2)C1 [Example 110, 4-chloro-2-[(2-{[2-(methyloxy)-4-(1-propyl-1,2,5,6-tetrahydro-3-pyridinyl)phenyl]amino}-1H-pyrrolo[2,3-d]pyrimidin-4-yl)amino]benzamide] | 1.26 to 3.98 nM | 1.26 to 3.98 nM | 0.251 to 1 nM | 100 to 500 nM | > 500 nM
CNC(=O)c1c(F)cc(Cl)cc1Nc1nc(Nc2cc3c(cc2OC)CCN3C(=O)CN(C)C)nc2[nH]ccc12 [Example 120, 4-chloro-2-[(2-{[1-(N,N-dimethylglycyl)-5-(methyloxy)-2,3-dihydro-1H-indol-6-yl]amino}-1H-pyrrolo[2,3-d]pyrimidin-4-yl)amino]-6-fluoro-N-methylbenzamide] | 0.251 to 1 nM | 0.251 to 1 nM | 0.251 to 1 nM | 100 to 500 nM | 100 to 500 nM
COc1cc2c(cc1Nc1nc(Nc3cccc(F)c3C(N)=O)c3cc[nH]c3n1)N(C(=O)CN(C)C)[C@H](C)C2 [Example 248, 2-[(2-{[(2R)-1-(N,N-dimethylglycyl)-2-methyl-5-(methyloxy)-2,3-dihydro-1H-indol-6-yl]amino}-1H-pyrrolo[2,3-d]pyrimidin-4-yl)amino]-6-fluorobenzamide] | 5.01 to 200 nM | 5.01 to 158 nM | 5.01 to 200 nM | 100 to 500 nM | 100 to 500 nM
COc1cc2c(cc1Nc1nc(Nc3cccc(F)c3C(N)=O)c3cc[nH]c3n1)N(C(=O)CN(C)C)[C@@H](C)C2 [Example 249, 2-[(2-{[(2S)-1-(N,N-dimethylglycyl)-2-methyl-5-(methyloxy)-2,3-dihydro-1H-indol-6-yl]amino}-1H-pyrrolo[2,3-d]pyrimidin-4-yl)amino]-6-fluorobenzamide] | 0.251 to 1 nM | 0.251 to 1 nM | 1.26 to 3.98 nM | < 100 nM | < 100 nM
CNC(=O)c1c(F)cccc1Nc1nc(Nc2cc3c(cc2OC)C[C@H](C)N3C(=O)CN(C)C)nc2[nH]ccc12 [Example 251, 2-[(2-{[(2S)-1-(N,N-dimethylglycyl)-2-methyl-5-(methyloxy)-2,3-dihydro-1H-indol-6-yl]amino}-1H-pyrrolo[2,3-d]pyrimidin-4-yl)amino]-6-fluoro-N-methylbenzamide] | 1.26 to 3.98 nM | 1.26 to 3.98 nM | 0.251 to 1 nM | < 100 nM | < 100 nM
COc1cc(C)c(N(C)C(=O)CN(C)C)cc1Nc1nc(Nc2cccc(F)c2C(N)=O)c2cc[nH]c2n1 [Example 255, 2-[(2-{[5-[(N,N-dimethylglycyl)(methyl)amino]-4-methyl-2-(methyloxy)phenyl]amino}-1H-pyrrolo[2,3-d]pyrimidin-4-yl)amino]-6-fluorobenzamide] | 5.01 to 200 nM | 5.01 to 158 nM | 5.01 to 200 nM | > 500 nM | > 500 nM
